Data: US8574563B2 (Bristol-Myers Squibb Company, priority 2006, dated 2013)

What follows are compounds tested on HCV 1b-377-neo replicon cells (assay: HCV replicon assay, HCV 1b-377-neo replicon cells (1b FRET)). Details: HCV 1b-377-neo replicon cells; HCV 1b genotype.
Format: cell-based, Hepatitis C virus genotype 1b
In short: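 Compounds tested in HCV genotype 1b-377-neo replicon cells with a FRET read-out. Cells resistant to a reference NS5A inhibitor through a Y2065H NS5A mutation were run alongside wild-type cells.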

**Q.** For `COC(=O)N[C@@H](C(=O)N1CCC[C@H]1c1ncc(-c2ccc(-c3ccc(-c4cnc([C@@H]5CCCN5C(=O)[C@H](NC(=O)OC)c5ccccc5)[nH]4)cc3C(=O)O)cc2)[nH]1)c1ccccc1` [Example M117, 4,4′-bis(2-((2S)-1-((2R)-2-((methoxycarbonyl)amino)-2-phenylacetyl)-2-pyrrolidinyl)-1H-imidazol-5-yl)-2-biphenylcarboxylic acid], which “EC50 range against HCV 1b (Table 2, Range)” value is on record?
**A.** Its value is “>A”.

Same assay, conditions: HCV 1b-377-neo replicon cells; HCV 1b genotype; read-out: EC50 range against HCV 1b (Table 2, Range)

**Q.** How did the EC50 turn out when `O=C(C(c1ccccc1)N1CCC(c2ccccc2)CC1)N1CCC[C@H]1c1ncc(-c2ccc(-c3ccc(-c4c[nH]c([C@@H]5CCCN5C(=O)[C@H]5CCCO5)n4)cc3)cc2)[nH]1` (stereo partly drawn) [Example 103-2, 1-(2-oxo-1-phenyl-2-((2S)-2-(5-(4′-(2-((2S)-1-((2R)-tetrahydro-2-furanylcarbonyl)-2-pyrrolidinyl)-1H-imidazol-4-yl)-4-biphenylyl)-1H-imidazol-2-yl)-1-pyrrolidinyl)ethyl)-4-phenylpiperidine] was run?
**A.** The EC50 was 0.001 to 0.999 nM.

Same assay, conditions: Hepatitis C virus, HCV 1b-377-neo replicon cells; HCV 1b genotype; read-out: EC50 range against HCV 1b (Table 2, Range)

**Q.** With `CC(C)[C@H](NC(=O)OC(C)(C)C)C(=O)N1[C@@H]2C[C@@H]2C[C@H]1c1nc(-c2ccc(-c3ccc(-c4c[nH]c([C@@H]5C[C@H]6C[C@H]6N5C(=O)[C@@H](NC(=O)OC(C)(C)C)C(C)C)n4)cc3)cc2)c[nH]1` [Example M140a-ii, tert-butyl ((1S)-1-(((1R,3S,5R)-3-(4-(4′-(2-((1R,3S,5R)-2-((2S)-2-((tert-butoxycarbonyl)amino)-3-methylbutanoyl)-2-azabicyclo[3.1.0]hex-3-yl)-1H-imidazol-4-yl)-4-biphenylyl)-1H-imidazol-2-yl)-2-azabicyclo[3.1.0]hex-2-yl)carbonyl)-2-methylpropyl)carbamate] as the compound, how does the EC50 read?
**A.** The EC50 was 1 to 99 nM.

**Q.** Which EC50 does the source give for `CCN(CC)[C@@H](C(=O)N1CCC[C@H]1c1ncc(-c2ccc(-c3ccc(-c4cnc([C@@H]5CCCN5C(=O)[C@H](Cc5ccc(O)cc5)NC(=O)OC)[nH]4)cc3)cc2)[nH]1)c1ccccc1` [cj-112, methyl ((1S)-2-((2S)-2-(5-(4′-(2-((2S)-1-((2R)-2-(diethylamino)-2-phenylacetyl)-2-pyrrolidinyl)-1H-imidazol-5-yl)-4-biphenylyl)-1H-imidazol-2-yl)-1-pyrrolidinyl)-1-(4-hydroxybenzyl)-2-oxoethyl)carbamate] here?
**A.** Its EC50 is 0.001 to 0.999 nM.

**Q.** Which EC50 does the source give for `COC(=O)N[C@H](C(=O)N1C[C@H](O)C[C@H]1c1ncc(-c2ccc(-c3ccc(-c4cnc([C@@H]5C[C@@H](O)CN5C(=O)[C@@H](NC(=O)OC)C5CC5)[nH]4)cc3)cc2)[nH]1)C1CC1` [JG-6, dimethyl (4,4′-biphenyldiylbis(1H-imidazole-5,2-diyl((2S,4R)-4-hydroxy-2,1-pyrrolidinediyl)((1S)-1-cyclopropyl-2-oxo-2,1-ethanediyl)))biscarbamate] here?
**A.** Its EC50 is 1 to 99 nM.

**Q.** For `COC(=O)N[C@@H](C(=O)N1CCC[C@H]1c1ncc(-c2ccc(-c3ccc(-c4cnc([C@@H]5CCCN5C(=O)[C@@H](C)NC(C)=O)[nH]4)cc3)cc2)[nH]1)c1ccccc1` [Example 53, methyl ((1R)-2-((2S)-2-(5-(4′-(2-((2S)-1-(N-acetyl-D-alanyl)-2-pyrrolidinyl)-1H-imidazol-5-yl)-4-biphenylyl)-1H-imidazol-2-yl)-1-pyrrolidinyl)-2-oxo-1-phenylethyl)carbamate], which EC50 is on record?
**A.** Its EC50 is 0.001 to 0.999 nM.

**Q.** Which EC50 does the source give for `CN(C)[C@@H](C(=O)N1CCC[C@H]1c1ncc(-c2ccc(-c3ccc(-c4cnc([C@@H]5CCCN5C(=O)c5snnc5-c5ccccc5)[nH]4)cc3)cc2)[nH]1)c1ccccc1` [Example 94-10, (1R)-N,N-dimethyl-2-oxo-1-phenyl-2-((2S)-2-(5-(4′-(2-((2S)-1-((4-phenyl-1,2,3-thiadiazol-5-yl)carbonyl)-2-pyrrolidinyl)-1H-imidazol-5-yl)-4-biphenylyl)-1H-imidazol-2-yl)-1-pyrrolidinyl)ethanamine] here?
**A.** Its EC50 is 0.001 to 0.999 nM.

**Q.** Which EC50 does the source give for `COC(=O)N[C@@H](Cc1ccncc1)C(=O)N1CCC[C@H]1c1ncc(-c2ccc(-c3ccc(-c4cnc([C@@H]5CCCN5C(=O)[C@@H](NC(=O)OC)[C@@H](C)OC)[nH]4)cc3)cc2)[nH]1` [cj-87, methyl ((1S)-2-((2S)-2-(5-(4′-(2-((2S)-1-((2S,3R)-3-methoxy-2-((methoxycarbonyl)amino)butanoyl)-2-pyrrolidinyl)-1H-imidazol-5-yl)-4-biphenylyl)-1H-imidazol-2-yl)-1-pyrrolidinyl)-2-oxo-1-(4-pyridinylmethyl)ethyl)carbamate] here?
**A.** Its EC50 is 0.001 to 0.999 nM.

**Q.** `COC(=O)N[C@@H](Cc1c[nH]nn1)C(=O)N1CCC[C@H]1c1ncc(-c2ccc(-c3ccc(-c4cnc([C@@H]5CCCN5C(=O)[C@H](Cc5c[nH]nn5)NC(=O)OC)[nH]4)cc3)cc2)[nH]1` [cj-125, methyl ((1S)-2-((2S)-2-(5-(4′-(2-((2S)-1-((2S)-2-((methoxycarbonyl)amino)-3-(1H-1,2,3-triazol-4-yl)propanoyl)-2-pyrrolidinyl)-1H-imidazol-5-yl)-4-biphenylyl)-1H-imidazol-2-yl)-1-pyrrolidinyl)-2-oxo-1-(1H-1,2,3-triazol-4-ylmethyl)ethyl)carbamate] was tested. Which EC50 did it give?
**A.** The EC50 was 1 to 99 nM.

**Q.** Which EC50 does the source give for `CC(C)[C@H](O)C(=O)N1CCC[C@H]1c1ncc(-c2ccc(-c3ccc(-c4cnc([C@@H]5CCCN5C(=O)[C@@H](O)C(C)C)[nH]4)cc3)cc2)[nH]1` [LS4, (2S,2′S)-1,1′-(4,4′-biphenyldiylbis(1H-imidazole-5,2-diyl(2S)-2,1-pyrrolidinediyl))bis(3-methyl-1-oxo-2-butanol)] here?
**A.** Its EC50 is 1 to 99 nM.

**Q.** For `COC(=O)N[C@@H](C)C(=O)N1CCC[C@H]1c1ncc(-c2ccc(-c3ccc(-c4cnc([C@@H]5CCCN5C(=O)[C@H](Cc5ccncc5)NC(=O)OC)[nH]4)cc3)cc2)[nH]1` [cj-90, methyl ((1S)-2-((2S)-2-(5-(4′-(2-((2S)-1-(N-(methoxycarbonyl)-L-alanyl)-2-pyrrolidinyl)-1H-imidazol-5-yl)-4-biphenylyl)-1H-imidazol-2-yl)-1-pyrrolidinyl)-2-oxo-1-(4-pyridinylmethyl)ethyl)carbamate], which EC50 is on record?
**A.** Its EC50 is 0.001 to 0.999 nM.

**Q.** How did the EC50 turn out when `COC(=O)N[C@@H](C(=O)N[C@@H](C)c1ncc(-c2ccc(-c3ccc(-c4cnc([C@@H]5CCCN5C(=O)[C@H](NC(=O)OC)c5ccccc5)[nH]4)cn3)cc2)[nH]1)c1ccccc1` [Example 152j-12, methyl ((1R)-2-((2S)-2-(5-(6-(4-(2-((1S)-1-(((2R)-2-((methoxycarbonyl)amino)-2-phenylacetyl)amino)ethyl)-1H-imidazol-5-yl)phenyl)-3-pyridinyl)-1H-imidazol-2-yl)-1-pyrrolidinyl)-2-oxo-1-phenylethyl)carbamate] was run?
**A.** The EC50 was 0.001 to 0.999 nM.

**Q.** For `CCN(CC)[C@@H](C(=O)N1CCC[C@H]1c1ncc(-c2ccc(-c3ccc(-c4cnc([C@@H]5CCCN5C(=O)[C@H](NC(=O)OC)C5CC5)[nH]4)cc3)cc2)[nH]1)c1ccccc1` [Example M56, methyl ((1R)-1-cyclopropyl-2-((2S)-2-(5-(4′-(2-((2S)-1-((2R)-2-(diethylamino)-2-phenylacetyl)-2-pyrrolidinyl)-1H-imidazol-5-yl)-4-biphenylyl)-1H-imidazol-2-yl)-1-pyrrolidinyl)-2-oxoethyl)carbamate], which EC50 is on record?
**A.** The EC50 was 1 to 99 nM.

**Q.** With `COC(=O)N[C@H](C(=O)N1CCC[C@H]1c1nc(-c2ccc(-c3ccc(-c4cnc([C@@H]5CCCN5C(=O)[C@@H](NC(=O)OC)C5CCOCC5)[nH]4)cc3)cc2)c[nH]1)C(C)C` [Example F58, methyl ((1S)-1-(((2S)-2-(4-(4′-(2-((2S)-1-((2S)-2-((methoxycarbonyl)amino)-2-(tetrahydro-2H-pyran-4-yl)acetyl)-2-pyrrolidinyl)-1H-imidazol-5-yl)-4-biphenylyl)-1H-imidazol-2-yl)-1-pyrrolidinyl)carbonyl)-2-methylpropyl)carbamate] as the compound, how does the EC50 read?
**A.** Its EC50 is 0.001 to 0.999 nM.

**Q.** Which EC50 does the source give for `COC(=O)N[C@@H](C(=O)N1CCC[C@H]1c1ncc(-c2ccc(-c3ccc(-c4cnc([C@@H]5CCCN5C(=O)C(c5ccccc5F)N(C)C)[nH]4)cc3)cc2)[nH]1)c1ccccc1` (stereo partly drawn) [Example 84-59, methyl ((1R)-2-((2S)-2-(5-(4′-(2-((2S)-1-((dimethylamino)(2-fluorophenyl)acetyl)-2-pyrrolidinyl)-1H-imidazol-5-yl)-4-biphenylyl)-1H-imidazol-2-yl)-1-pyrrolidinyl)-2-oxo-1-phenylethyl)carbamate] here?
**A.** Its EC50 is 0.001 to 0.999 nM.

**Q.** `CCCN(CCC)[C@H](C)C(=O)N1CCC[C@H]1c1ncc(-c2ccc(-c3ccc(-c4cnc([C@@H]5CCCN5C(=O)[C@@H](C)N(CCC)CCC)[nH]4)cc3)cc2)[nH]1` [Example M13, N,N′-(4,4′-biphenyldiylbis(1H-imidazole-5,2-diyl(2S)-2,1-pyrrolidinediyl((2R)-1-oxo-1,2-propanediyl)))bis(N-propyl-1-propanamine)] was tested. Which EC50 did it give?
**A.** The EC50 was 100 to 999 nM.

**Q.** For `COC(=O)N[C@H](C(=O)N1CCCC1c1ncc(-c2ccc(-c3ccc(-c4cnc([C@]5(C)CCCN5C(=O)[C@@H](NC(=O)OC)[C@@H](C)OC)[nH]4)cc3)cc2)[nH]1)[C@@H](C)OC` (some centres unmarked), which EC50 is on record?
**A.** The EC50 was 0.001 to 0.999 nM.

**Q.** With `O=C([C@@H](c1ccccc1)N1CCCCC1)N1C[C@@H](F)C[C@H]1c1ncc(-c2ccc(-c3ccc(-c4cnc([C@@H]5C[C@H](F)CN5C(=O)[C@@H](c5ccccc5)N5CCCCC5)[nH]4)cc3)cc2)[nH]1` [Example 24-7] as the compound, how does the EC50 read?
**A.** The EC50 was 0.001 to 0.999 nM.

**Q.** `O=C([C@H]1CCCO1)N1CCC[C@H]1c1ncc(-c2ccc(-c3ccc(-c4cnc([C@@H]5CCCN5C(=O)[C@@H](c5ccccc5)N5CCCCC5)[nH]4)cc3)cc2)[nH]1` [Example 28-2, 1-((1R)-2-oxo-1-phenyl-2-((2S)-2-(5-(4′-(2-((2S)-1-((2R)-tetrahydro-2-furanylcarbonyl)-2-pyrrolidinyl)-1H-imidazol-5-yl)-4-biphenylyl)-1H-imidazol-2-yl)-1-pyrrolidinyl)ethyl)piperidine] was tested. Which EC50 did it give?
**A.** The EC50 was 0.001 to 0.999 nM.

**Q.** Which EC50 does the source give for `COC(=O)N[C@@H](C(=O)N1CCC[C@H]1c1ncc(-c2ccc(-c3ccc(-c4cnc([C@@H]5CCCN5C(=O)c5cncn5C)[nH]4)cc3)cc2)[nH]1)c1ccccc1` [Example 49, methyl ((1R)-2-((2S)-2-(5-(4′-(2-((2S)-1-((1-methyl-1H-imidazol-5-yl)carbonyl)-2-pyrrolidinyl)-1H-imidazol-5-yl)-4-biphenylyl)-1H-imidazol-2-yl)-1-pyrrolidinyl)-2-oxo-1-phenylethyl)carbamate] here?
**A.** The EC50 was 0.001 to 0.999 nM.
